Where two headings read alike, the source gives them in different places.
Experiments:
Hs578T [1] = assay: Apoptosis assay (Cellomics, nucleus condensation); type: cell-based; details: Homo sapiens, Hs-578T, Table III, read-out: Apoptosis induction in Hs578T
From the text: (§1) The Cellomics BioApplication (Thermo Fischer Cellomics Products, Pittsburgh, Pa.) is an automated image analysis algorithm that provides detailed analysis of phenotypes related to apoptosis. As one of the most prominent characteristics of apoptotics cell a nucleus condensation takes place. This can be measured fluorescence signal intensity using a CCD camera on fully automated microscope system. The Cellomics system is able to quantify the fluorescence intensity per single nucleus and calculates the variation of signal intensity in each cell population. […] Additionally the number of detected cell decreases normally in apoptotic cell populations. In detail 5000 cell per 96 well were labeled with DNA intercalating dye (Hoechst 33342, Sigma, Steinheim, Germany) to visualize the nucleus in a fluorescence microscope under live conditions. The apoptosis assay was performed 24 h and 48 h after addition of compound at concentrations 12.5 μM, 6.25 μM, 3.125 μM, 1.56 μM, 0.78 μM, 0.39 μM as well as DMSO control for 48 h.

SF763 = assay: Apoptosis assay (Cellomics, nucleus condensation); type: cell-based; details: Table III, read-out: Apoptosis induction in SF763
From the text: as §1

U138 = assay: Apoptosis assay (Cellomics, nucleus condensation); type: cell-based; details: Table III, read-out: Apoptosis induction in U138
From the text: as §1

U118 = assay: Apoptosis assay (Cellomics, nucleus condensation); type: cell-based; details: Table III, read-out: Apoptosis induction in U118
From the text: as §1

SF126 = assay: Apoptosis assay (Cellomics, nucleus condensation); type: cell-based; details: Homo sapiens, SF-126, Table III, read-out: Apoptosis induction in SF126
From the text: as §1

C8161 = assay: Apoptosis assay (Cellomics, nucleus condensation); type: cell-based; details: Homo sapiens, Table III, read-out: Apoptosis induction in C8161
From the text: as §1

indicated cell line = assay: Wound healing migration assay (Table IV); type: cell-based; details: compounds at 12.5, 6.25, 3.125 μM, 48 h-72 h
Description: This method mimics cell migration during wound healing in vivo. The basic steps involve creating a “wound” in a cell monolayer, capturing the images at the beginning and at regular intervals during cell migration to close the wound, and comparing the images to quantify the migration rate of the cells. In detail, 150000 cell/24 well have been seeded and allowed to form a monolayer overnight. Subsequently a “wound” or “scratch” has been performed with a 1000 μl pipette tip. The STDV of wound size is normally below 10% at time point t0. The assay was stopped by fixation with 0.05% Crystal violet/20% methanol when control scratches were closed. The assay was terminated between 48 h and 72 h depending on the migration potential of the indicated cell line. The “wounds” were visualized with a Zeiss Axiovert S100 microscope (Carl Zeiss UK, Welwyn Garden City, UK). The tested compounds were used at 12.5 μM, 6.25, 3.125 μM and DMSO control. IC50 values have been calculated as 50% wound size in between t0 and t48 or t72.

cells = assay: Boyden chamber migration assay (Table VI); type: cell-based; details: Homo sapiens, Hs-578T, 16 h, Hs578T cells; 16 h migration
Description: The Boyden chamber assay is based on a chamber of two medium-filled compartments separated by a microporous membrane of 8 μM (Cell culture insert 8.0 μM pore size, BD Biosciences, Bedford, Mass.). The boyden chamber migration assays were carried out according to the supplier's instructions. In general, 20000 cells are placed in the upper compartment with medium containing 0% FCS plus 0.1% BSA and are allowed to migrate 16 h through the pores of the membrane into the lower compartment, which is filled with cell culture medium containing 10% FCS as chemotactic agents. The cells remaining in the insert were removed with a cotton swab, and the cells on the bottom of the filter were fixed and counted. (Zhang Y X, et al. AXL is a potential target for therapeutic intervention in breast cancer progression. Cancer Res. 2008; 68:1905-15).

Hs578T [2] = assay: Matrigel outgrowth assay/branching assay; type: cell-based; details: Homo sapiens, Hs-578T; HS578T cell line; Table Ib; read-out: Total branching inhibition in Matrigel HS578T
How it was run: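 Matrigel 3 mg/ml, polymerized 1 h 37° C; 5000 cells/well + cmpd 3.125/1.56/0.78 μM or DMSO. Imaged 48/72/96 h, 5× objective. Positive = total branching block.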

viable cells in culture = assay: Cell viability assay at 10 μM (CellTiter-Glo, Table VII); type: cell-based; details: compound 10 μM, 72 h;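 further: graded A 0-20%; B 21-40%; C 41-60%; D over 60% viable cells relative to DMSO control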
How it was run: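 Cells were seeded at 1000 cells/well in 96-well plates in 100 μl culture medium and incubated for 72 h with 10 μM compound or a DMSO control. ATP content, which reflects metabolically active and therefore viable cells, was then determined by CellTiter-Glo luminescence (Promega) per the manufacturer's instructions and expressed relative to the DMSO control.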

tumor cell = assay: Matrigel outgrowth assay/branching assay (Table Va); type: cell-based
Description: The Matrigel outgrowth assay is based on the ability of tumor cell to penetrate a solid gel of extracellular matrix proteins mimicking the metastasis formation in vivo. While cells with low invasive potential appear as roundish cell or cell cluster, cells with high invasive potential penetrate the Matrigel and form polymorphic structures. In detail 65 μl of Matrigel matrix (Matrigel™ Matrix, BD Biosciences, Bedford, Mass., USA) with a concentration of 3 mg/ml have been polymerized in 96 well plates for 1 h at 37° C. Subsequently 5000 cell/well were seeded into each well containing cell culture medium and indicated compound with concentrations of 3.125 μM, 1.56 μM and 0.78 μM as well as DMSO control. After 48 h, 72 h and 96 h images of cell were taken on an inverted microscope using a 5× objective (Zeiss Axiovert S100 microscope Carl Zeiss UK, Welwyn Garden City, UK). Only compound concentrations were total branching inhibition was evident were accounted as positive. Method was used as previously described, with some modifications (Thompson E W, et al. Association of increased basement membrane invasiveness with absence of estrogen receptor and expression of vimentin in human breast cancer cell lines. J Cell Physiol 1992; 150:534-44).

[3] = Homo sapiens, C8161 cells, read-out: IC50 Wound healing Assay C8161
[4] = SF763 cells, read-out: IC50 Wound healing Assay SF763
[5] = Homo sapiens, HCT-116, HCT116 def, read-out: percentage (%) of viable cells HCT 116def
[6] = Homo sapiens, HCT-116, HCT116 wt, read-out: percentage (%) of viable cells HCT 116wt
[7] = Homo sapiens, HT-29, HT29, read-out: percentage (%) of viable cells HT29
[8] = Homo sapiens, NCI-H358, H358, read-out: percentage (%) of viable cells H358
[9] = Homo sapiens, NCI-H1650, H1650, read-out: percentage (%) of viable cells H1650
[10] = Homo sapiens, NCI-H1666, H1666, read-out: percentage (%) of viable cells H1666
[11] = Homo sapiens, NCI-H1975, H1975, read-out: percentage (%) of viable cells H1975
[12] = Homo sapiens, NCI-H1993, H1993, read-out: percentage (%) of viable cells H1993
[13] = Homo sapiens, A549, read-out: percentage (%) of viable cells A549
[14] = Homo sapiens, HCC827, read-out: percentage (%) of viable cells HCC827
[15] = Homo sapiens, SW480, read-out: percentage (%) of viable cells SW480
[16] = RKO, read-out: percentage (%) of viable cells RKO
[17] = Homo sapiens, C8161 cells, read-out: Total branching inhibition in Matrigel C8161
[18] = Homo sapiens, Hs-578T, Hs578T cells, read-out: Total branching inhibition in Matrigel Hs578T
[19] = U118 cells, read-out: Total branching inhibition in Matrigel U118
[20] = U138 cells, read-out: Total branching inhibition in Matrigel U138

SMILES	IC50 (Hs578T [1]) [µM]	IC50 (SF763) [µM]	IC50 (U138) [µM]	IC50 (U118) [µM]	IC50 (SF126) [µM]	IC50 (C8161) [µM]	IC50 (indicated cell line; [3]) [µM]	IC50 (indicated cell line; [4]) [µM]	IC50 (cells) [µM]	IC50 (tumor cell; [17]) [µM]	IC50 (tumor cell; [18]) [µM]	IC50 (tumor cell; [19]) [µM]	IC50 (tumor cell; [20]) [µM]	IC50 (Hs578T [2]) [µM]	viability at 10 µM (viable cells in culture; [5]) [%]	viability at 10 µM (viable cells in culture; [6]) [%]	viability at 10 µM (viable cells in culture; [7]) [%]	viability at 10 µM (viable cells in culture; [8]) [%]	viability at 10 µM (viable cells in culture; [9]) [%]	viability at 10 µM (viable cells in culture; [10]) [%]	also measured
O=S(=O)(Nc1ccc(Oc2ccnc3cc(OCCCCN4CCOCC4)ccc23)c(F)c1)c1cc(F)ccc1F [Example 84, 2,5-Difluoro-N-{3-fluoro-4-[7-(4-morpholin-4-yl-butoxy)-quinolin-4-yloxy]-phenyl}-benzenesulfonamide]	≤ 12.5	≤ 12.5	≤ 12.5	≤ 12.5	≤ 12.5	≤ 12.5	≤ 12.5	12.5 to 50	≤ 5	≤ 5	≤ 5	≤ 5	≤ 5	≤ 10	0 to 20	0 to 20	0 to 20	0 to 20	0 to 20	41 to 60	viability at 10 µM (viable cells in culture; [11]): 21 to 40%; viability at 10 µM (viable cells in culture; [12]): 0 to 20%; viability at 10 µM (viable cells in culture; [13]): > 60%; viability at 10 µM (viable cells in culture; [14]): > 60%; viability at 10 µM (viable cells in culture; [15]): 0 to 20%; viability at 10 µM (viable cells in culture; [16]): 0 to 20%
COc1cc2nccc(Oc3ccc(NS(=O)(=O)c4ccccc4C(F)(F)F)cc3F)c2cc1OCCCN1CCN(C)CC1 [Example 86, N-(3-Fluoro-4-{7-methoxy-6-[3-(4-methyl-piperazin-1-yl)-propoxy]-quinolin-4-yloxy}-phenyl)-2-trifluoromethyl-benzenesulfonamide]	≤ 12.5	≤ 12.5	≤ 12.5	≤ 12.5	≤ 12.5	≤ 12.5	12.5 to 50	12.5 to 50	≤ 5	≤ 5	≤ 5	≤ 5	5 to 50	≤ 10	21 to 40	21 to 40	0 to 20	0 to 20	21 to 40	41 to 60	viability at 10 µM (viable cells in culture; [11]): 21 to 40%; viability at 10 µM (viable cells in culture; [12]): 0 to 20%; viability at 10 µM (viable cells in culture; [13]): > 60%; viability at 10 µM (viable cells in culture; [14]): 41 to 60%; viability at 10 µM (viable cells in culture; [15]): 21 to 40%; viability at 10 µM (viable cells in culture; [16]): 21 to 40%

The next lines start with results.

IC50 (Hs578T [1]) [µM]	IC50 (SF763) [µM]	IC50 (U138) [µM]	IC50 (U118) [µM]	IC50 (SF126) [µM]	IC50 (C8161) [µM]	IC50 (indicated cell line; [3]) [µM]	IC50 (indicated cell line; [4]) [µM]	IC50 (cells) [µM]	IC50 (tumor cell; [17]) [µM]	IC50 (tumor cell; [18]) [µM]	IC50 (tumor cell; [19]) [µM]	IC50 (tumor cell; [20]) [µM]	SMILES	IC50 (Hs578T [2]) [µM]	viability at 10 µM (viable cells in culture; [5]) [%]	viability at 10 µM (viable cells in culture; [6]) [%]	viability at 10 µM (viable cells in culture; [7]) [%]	viability at 10 µM (viable cells in culture; [8]) [%]	viability at 10 µM (viable cells in culture; [9]) [%]	viability at 10 µM (viable cells in culture; [10]) [%]	also measured
≤ 12.5	≤ 12.5	≤ 12.5	12.5 to 50	≤ 12.5	≤ 12.5	≤ 12.5	12.5 to 50	≤ 5	≤ 5	≤ 5	≤ 5	5 to 50	CN1CCN(CCCOc2ccc3nccc(Oc4ccc(NS(=O)(=O)c5ccccc5C(F)(F)F)cc4F)c3c2)CC1 [Example 85, N-(3-Fluoro-4-{6-[3-(4-methyl-piperazin-1-yl)-propoxy]-quinolin-4-yloxy}-phenyl)-2-trifluoromethyl-benzenesulfonamide]	≤ 10	21 to 40	0 to 20	21 to 40	21 to 40	21 to 40	41 to 60	viability at 10 µM (viable cells in culture; [11]): 21 to 40%; viability at 10 µM (viable cells in culture; [12]): 0 to 20%; viability at 10 µM (viable cells in culture; [13]): 41 to 60%; viability at 10 µM (viable cells in culture; [14]): 0 to 20%; viability at 10 µM (viable cells in culture; [15]): 0 to 20%; viability at 10 µM (viable cells in culture; [16]): 0 to 20%
≤ 12.5	≤ 12.5	≤ 12.5	12.5 to 50	≤ 12.5	≤ 12.5	≤ 12.5	12.5 to 50	≤ 5	≤ 5	≤ 5	≤ 5	5 to 50	COc1cc2c(Oc3ccc(NS(=O)(=O)c4ccc(F)c(F)c4F)cc3F)ccnc2cc1OCCCN1CCN(C)CC1 [Example 17, 2,3,4-Trifluoro-N-(3-fluoro-4-{6-methoxy-7-[3-(4-methyl-piperazin-1-yl)-propoxy]-quinolin-4-yloxy}-phenyl)-benzenesulfonamide]	≤ 10							melting point: 88 to 90 °C
≤ 12.5	≤ 12.5	≤ 12.5	12.5 to 50	12.5 to 50	≤ 12.5	12.5 to 50	≤ 12.5	≤ 5	≤ 5	≤ 5	≤ 5	5 to 50	COc1cc2c(Oc3ccc(NS(=O)(=O)c4ccccc4F)cc3F)ccnc2cc1OCCCN1CCN(C)CC1 [Example 26, 2-Fluoro-N-(3-fluoro-4-{6-methoxy-7-[3-(4-methyl-piperazin-1-yl)-propoxy]-quinolin-4-yloxy}-phenyl)-benzenesulfonamide]	≤ 10							melting point: 185 to 186 °C

From US9169241B2, “Quinolinyloxyphenylsulfonamides” (Max-Planck-Gesellschaft Zur Forderung der Wissenschaften …, priority 2009, dated 2015)
